Article PMC4188605, “Biochemical and Pharmacological Characterization of the Human Lymphocyte Antigen B-Associated Transcript 5 (BAT5/ABHD16A)” (PLoS ONE, 2014)
pIC50: −log10 of the molar value. Blank lines part the entries; values can stand above or below the compound they belong to.

Key:
hMAGL = biological target: T1, hMAGL (Homo sapiens, UniProt Q99685); settings: 2-AG as the substrate; range given jointly for hABHD6, hABHD12 and hMAGL; cited from earlier work
T1 construct: expressed in transfected cells; host or cells: HEK
T1 sequence (Q99685 1-303): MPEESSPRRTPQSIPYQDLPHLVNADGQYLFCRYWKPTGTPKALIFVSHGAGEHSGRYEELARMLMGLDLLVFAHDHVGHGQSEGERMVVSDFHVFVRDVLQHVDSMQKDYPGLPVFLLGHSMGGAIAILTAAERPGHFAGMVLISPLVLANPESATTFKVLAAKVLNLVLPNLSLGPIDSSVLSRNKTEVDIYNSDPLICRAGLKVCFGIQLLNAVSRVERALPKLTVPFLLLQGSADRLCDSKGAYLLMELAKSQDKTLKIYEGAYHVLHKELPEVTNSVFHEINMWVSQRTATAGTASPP

hABHD12 = biological target: T2, hABHD12 (Homo sapiens, UniProt Q8N2K0); parameters: method as in PMID 22969151; settings: 2-AG as the substrate; range given jointly for hABHD6, hABHD12 and hMAGL; cited from earlier work
T2 construct: expressed in transfected cells; host or cells: HEK293
T2 sequence (Q8N2K0 1-398): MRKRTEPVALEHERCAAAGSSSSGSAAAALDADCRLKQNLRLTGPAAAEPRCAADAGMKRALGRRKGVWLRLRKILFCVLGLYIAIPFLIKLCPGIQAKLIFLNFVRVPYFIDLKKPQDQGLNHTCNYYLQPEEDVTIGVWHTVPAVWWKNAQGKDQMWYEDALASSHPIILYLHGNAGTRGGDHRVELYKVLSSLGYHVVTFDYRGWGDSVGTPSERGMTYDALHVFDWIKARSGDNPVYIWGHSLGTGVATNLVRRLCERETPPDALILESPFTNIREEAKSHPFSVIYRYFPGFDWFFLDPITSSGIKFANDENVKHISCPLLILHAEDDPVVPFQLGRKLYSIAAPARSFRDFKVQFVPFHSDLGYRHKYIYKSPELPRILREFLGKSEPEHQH

hABHD6 = biological target: T3, hABHD6 (Homo sapiens, UniProt Q9BV23); parameters: method as in PMID 22969151; settings: 2-AG as the substrate; range given jointly for hABHD6, hABHD12 and hMAGL; cited from earlier work
T3 construct: expressed in transfected cells; host or cells: HEK293
T3 sequence (Q9BV23 1-337): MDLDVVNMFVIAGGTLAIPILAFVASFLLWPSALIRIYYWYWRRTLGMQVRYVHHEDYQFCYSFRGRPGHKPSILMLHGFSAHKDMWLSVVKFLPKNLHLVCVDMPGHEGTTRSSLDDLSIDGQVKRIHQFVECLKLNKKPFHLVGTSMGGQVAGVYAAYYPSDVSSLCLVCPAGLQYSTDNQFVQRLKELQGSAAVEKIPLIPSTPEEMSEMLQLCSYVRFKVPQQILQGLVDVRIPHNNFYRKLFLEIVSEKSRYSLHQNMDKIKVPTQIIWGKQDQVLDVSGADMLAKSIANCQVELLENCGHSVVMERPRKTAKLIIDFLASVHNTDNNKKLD

ABHD6 = biological target: T4, ABHD6 (Mus musculus, UniProt Q8R2Y0); assay: Competitive ABPP, mouse brain membrane proteome: ABHD6 band; settings: reference inhibitor at the indicated concentration, used to identify the band (refs 18, 23, 24)
T4 sequence (Q8R2Y0 1-336): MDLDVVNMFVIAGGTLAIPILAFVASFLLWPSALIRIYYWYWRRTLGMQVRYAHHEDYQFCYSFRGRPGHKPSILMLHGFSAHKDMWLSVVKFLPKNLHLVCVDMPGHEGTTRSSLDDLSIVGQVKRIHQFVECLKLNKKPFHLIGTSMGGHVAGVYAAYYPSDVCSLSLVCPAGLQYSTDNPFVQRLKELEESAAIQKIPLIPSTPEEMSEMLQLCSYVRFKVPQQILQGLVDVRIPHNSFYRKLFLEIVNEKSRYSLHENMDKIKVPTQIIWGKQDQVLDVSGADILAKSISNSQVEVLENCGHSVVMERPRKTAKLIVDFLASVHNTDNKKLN

FAAH = biological target: T5, FAAH (Mus musculus, UniProt O08914); assay: Competitive ABPP, mouse brain membrane proteome: FAAH band
T5 sequence (O08914 1-579): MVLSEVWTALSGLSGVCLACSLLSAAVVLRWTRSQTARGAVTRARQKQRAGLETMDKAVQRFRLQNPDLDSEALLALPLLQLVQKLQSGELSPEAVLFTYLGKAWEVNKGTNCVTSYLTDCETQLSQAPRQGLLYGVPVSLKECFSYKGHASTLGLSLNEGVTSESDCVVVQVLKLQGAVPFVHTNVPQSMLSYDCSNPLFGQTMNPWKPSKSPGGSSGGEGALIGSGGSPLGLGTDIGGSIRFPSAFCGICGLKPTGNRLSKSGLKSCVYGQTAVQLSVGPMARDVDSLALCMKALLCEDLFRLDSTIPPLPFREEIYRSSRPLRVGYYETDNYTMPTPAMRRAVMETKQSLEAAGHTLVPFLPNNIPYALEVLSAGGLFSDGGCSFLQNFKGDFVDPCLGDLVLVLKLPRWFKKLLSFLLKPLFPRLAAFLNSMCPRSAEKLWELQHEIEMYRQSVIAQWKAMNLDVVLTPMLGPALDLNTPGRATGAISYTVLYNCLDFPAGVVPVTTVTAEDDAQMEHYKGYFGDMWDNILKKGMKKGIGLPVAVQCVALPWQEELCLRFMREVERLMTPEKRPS

MAGL = biological target: T6, MAGL (Mus musculus, UniProt O35678); assay: Competitive ABPP, mouse brain membrane proteome: MAGL doublet
T6 sequence (O35678 1-303): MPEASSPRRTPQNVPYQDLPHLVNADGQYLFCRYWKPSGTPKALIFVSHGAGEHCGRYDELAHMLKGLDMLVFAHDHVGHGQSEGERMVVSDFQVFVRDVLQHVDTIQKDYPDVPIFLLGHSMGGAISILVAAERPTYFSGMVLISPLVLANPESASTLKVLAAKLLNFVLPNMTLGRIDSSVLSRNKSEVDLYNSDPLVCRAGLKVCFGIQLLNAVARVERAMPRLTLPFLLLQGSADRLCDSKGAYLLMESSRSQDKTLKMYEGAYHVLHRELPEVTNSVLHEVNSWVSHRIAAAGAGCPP

KIAA1363 = biological target: T7, KIAA1363 (Mus musculus, UniProt Q8BLF1); assay: Competitive ABPP, mouse brain membrane proteome: KIAA1363 doublet; format: binding; settings: 1 µM or indicated concentrations (Figure 11); 60 min
T7 construct: from tissue; host or cells: mouse whole brain membranes
T7 sequence (Q8BLF1 1-408): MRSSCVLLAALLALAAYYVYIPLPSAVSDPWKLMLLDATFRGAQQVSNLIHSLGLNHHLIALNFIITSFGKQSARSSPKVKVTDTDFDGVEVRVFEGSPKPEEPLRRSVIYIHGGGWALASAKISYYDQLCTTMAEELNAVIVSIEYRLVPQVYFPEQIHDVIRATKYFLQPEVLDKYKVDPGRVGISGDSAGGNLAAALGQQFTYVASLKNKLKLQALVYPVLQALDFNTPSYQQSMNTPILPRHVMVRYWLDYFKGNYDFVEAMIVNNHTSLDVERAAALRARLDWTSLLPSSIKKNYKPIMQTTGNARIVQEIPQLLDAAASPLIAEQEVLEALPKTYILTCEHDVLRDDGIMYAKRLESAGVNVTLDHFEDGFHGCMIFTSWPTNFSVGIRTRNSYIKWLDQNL

BAT5 = biological target: T8, BAT5 (Mus musculus, UniProt Q9Z1Q2); assay: Competitive ABPP, mouse brain membrane proteome: BAT5 band; settings: mouse brain membrane proteome, competitive ABPP
T8 sequence (Q9Z1Q2 1-558): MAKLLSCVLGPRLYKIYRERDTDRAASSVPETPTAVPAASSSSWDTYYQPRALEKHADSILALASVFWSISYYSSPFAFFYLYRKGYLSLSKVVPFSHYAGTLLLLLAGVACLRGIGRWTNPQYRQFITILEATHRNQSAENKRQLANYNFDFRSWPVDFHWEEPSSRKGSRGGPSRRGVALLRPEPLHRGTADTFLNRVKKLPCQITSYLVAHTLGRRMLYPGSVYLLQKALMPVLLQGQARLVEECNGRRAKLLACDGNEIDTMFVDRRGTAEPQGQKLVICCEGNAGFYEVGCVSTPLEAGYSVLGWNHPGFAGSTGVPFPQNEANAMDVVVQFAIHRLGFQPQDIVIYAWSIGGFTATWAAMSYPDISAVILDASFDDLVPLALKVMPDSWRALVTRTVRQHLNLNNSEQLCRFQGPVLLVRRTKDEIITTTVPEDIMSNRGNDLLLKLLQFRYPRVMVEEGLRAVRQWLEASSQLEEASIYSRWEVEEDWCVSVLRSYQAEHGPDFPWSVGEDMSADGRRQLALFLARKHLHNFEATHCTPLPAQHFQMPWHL

hBAT5 = biological target: T9, hBAT5 (Homo sapiens, UniProt O95870); assay: Inhibition of 1-LG hydrolysis in hBAT5-HEK293 lysates (fluorescent glycerol assay); format: biochemical; parameters: host or cells: HEK293; settings: 1-LG 25 µM; 30 min inhibitor pretreatment; monitored 90 min; mean, n=3; read-out: IC50
T9 sequence (O95870 1-558): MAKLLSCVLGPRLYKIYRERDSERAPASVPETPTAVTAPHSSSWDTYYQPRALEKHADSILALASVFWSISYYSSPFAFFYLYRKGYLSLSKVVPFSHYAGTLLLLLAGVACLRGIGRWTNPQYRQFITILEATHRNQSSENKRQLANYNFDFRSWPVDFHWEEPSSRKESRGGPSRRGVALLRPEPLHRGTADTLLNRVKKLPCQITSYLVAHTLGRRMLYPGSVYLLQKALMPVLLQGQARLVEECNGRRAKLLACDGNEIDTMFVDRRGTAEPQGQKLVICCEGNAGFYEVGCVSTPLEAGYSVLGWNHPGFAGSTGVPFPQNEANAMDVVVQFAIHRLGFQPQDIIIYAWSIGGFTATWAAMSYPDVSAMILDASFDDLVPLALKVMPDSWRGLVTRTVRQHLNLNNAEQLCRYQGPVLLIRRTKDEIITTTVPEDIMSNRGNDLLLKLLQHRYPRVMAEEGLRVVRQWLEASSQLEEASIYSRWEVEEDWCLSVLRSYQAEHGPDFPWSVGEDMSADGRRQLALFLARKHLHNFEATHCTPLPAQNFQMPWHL

LYPLA1/2 = assay: Competitive ABPP, mouse brain membrane proteome: LYPLA1/2 band; settings: 1 µM or indicated concentrations (Figure 11); 60 min
[1] = 1 µM or indicated concentrations (Figure 11), 60 min

Structure (SMILES): CCCCC/C=C\C/C=C\C/C=C\C/C=C\CCCC(=O)OC(CO)CO [2-AG, 2-arachidonoylglycerol]
- Km (hMAGL): 110 to 160 µM
- Km (hABHD12): 110 to 160 µM
- Km (hABHD6): 110 to 160 µM

Structure (SMILES): O=C(Oc1ccc([N+](=O)[O-])cc1)N1CCN(Cc2cccc(Oc3ccccc3)c2)CC1 [JZL195]
- inhibition of probe labeling of ABHD6 by reference inhibitor (ABHD6): inhibited
- inhibition of probe labeling of FAAH by reference inhibitor (FAAH; reference inhibitor at the indicated concentration, used to identify the band (ref 21)): inhibited
- inhibition of probe labeling of MAGL by reference inhibitor (MAGL; reference inhibitor at the indicated concentration, used to identify the band (refs 21, 22)): inhibited

- inhibition of probe binding to KIAA1363 (KIAA1363): did not visibly affect probe binding
- BAT5 selectivity among serine hydrolases as compared to 38 (BAT5): improved BAT5 selectivity
- inhibition of probe binding to FAAH (FAAH; [1]): did not visibly affect probe binding
- pIC50 (hBAT5): 7.20
- inhibition of probe binding to LYPLA1/2 (LYPLA1/2): did not visibly affect probe binding
- inhibition of probe binding to MAGL (MAGL; [1]): did not visibly affect probe binding
Structure (SMILES): COc1nn(-c2cccc([N+](=O)[O-])c2)c(=O)o1 [compound 40, 5-Methoxy-3-(3-nitrophenyl)-1,3,4-oxadiazol-2(3H)-one]

Structure (SMILES): COc1nn(-c2ccc(F)cc2)c(=O)o1 [compound 44]
- inhibition of probe binding to KIAA1363 (KIAA1363): shared one off-target with 38
- BAT5 selectivity among serine hydrolases as compared to 38 (BAT5): improved BAT5 selectivity
